{
  "source": "patent US10233151B2",
  "about": "“Use of a novel 3-aryl-4-catechol-pyrrole-N-propanol compound and the derivatives thereof to treat cancer and diseases related to excessive angiogenesis” (Centre National de la Recherche Scientifique (CNRS), priority 2014, dated 2019)",
  "system": "HCT-116 cells",
  "test": "Cell growth test (CellTiter-Blue), HCT-116",
  "assay_type": "cell-based",
  "settings": "for cytotoxic effect relative to compound (1): 72 hours; for IC50: Homo sapiens, HCT-116, 48 h, 48 hours, read-out: IC50, cytotoxic effect",
  "method": "The biological activity of compound (1), as well as that of its structural analogues, was studied in vitro on 7 different cancer cell lines: • HCT-116 (colorectal cancer) • U87 (glioblastoma) • K562 (myeloid leukemia) and K562 R • MDA-MB 231 (mammary adenocarcinoma) • MCF-7 (mammary adenocarcinoma) • A549 (pulmonary alveolar adenocarcinoma)\nThe cells selected for this study were incubated at 37° C. in the presence of compound (1) added in the culture medium at various concentrations and at various times. The set of experiments carried out made it possible to determine the degree of cytotoxicity of the compound tested (IC50), its capacity to induce cell death by apoptosis, in close dependence on extracellular superoxide anion for its activation. […]",
  "note": "Where two headings read alike, the source gives them in different places.",
  "data": [
    {"compound": "OCCCn1cc(-c2ccccc2)c(-c2ccc3c(c2)OCCO3)c1", "note": "[(2), 3-(3-(2,3-dihydrobenzo[b][1,4]dioxin-6-yl)-4-phenyl-1H-pyrrole-1-yl)propan-1-ol]", "values": [
      {"measurement": "cytotoxic effect relative to compound (1)", "setting": "HCT-116, normoxia", "value": "loss of cytotoxicity"}
    ]},
    {"compound": "OCCCn1cc(-c2ccccc2)c(-c2ccccc2)c1", "note": "[(3), 3-(3,4-Diphenyl-1H-pyrrol)propan-1-ol]", "values": [
      {"measurement": "cytotoxic effect relative to compound (1)", "setting": "HCT-116, normoxia", "value": "loss of cytotoxicity"}
    ]},
    {"compound": "CCOCCCn1cc(-c2ccccc2)c(-c2ccc(O)c(O)c2)c1", "note": "[(4), 4-(1-(3-Ethoxypropyl)-4-phenyl-1H-pyrrole-3-yl)benzene-1,2-diol]", "values": [
      {"measurement": "cytotoxic effect relative to compound (1)", "setting": "HCT-116, normoxia", "value": "does not substantially change the IC50 value"}
    ]},
    {"compound": "O=C1C=C(c2cn(CCCO)cc2-c2ccccc2)C=C(C2=C(O)C(c3cn(CCCO)cc3-c3ccccc3)=CC(O)C2O)C1=O", "note": "(centres unmarked) [dimer MH+ 631]", "values": [
      {"measurement": "IC50", "setting": "HCT-116, hypoxia (2% O2)", "value": 10, "unit": "µM"},
      {"measurement": "IC50", "setting": "HCT-116, normoxia", "value": 7.5, "unit": "µM"}
    ]}
  ]
}
